Read-outs that look alike come from different tables or passages of the source.
Legend:
[1] = target: T1, PYL3-Cy5.5 and PYL3-BHQ3 dimers (hetero- and homodimers) (Arabidopsis thaliana, UniProt Q9SSM7); assay: Static light scattering (SLS) average molar mass of PYL3-Cy5.5 / PYL3-BHQ3 mixture as a function of ABA concentration; format: biochemical; conditions: for PYLs in dimers (hetero- and homodimers, %) / PYLs in monomers (%): calculated using the SLS data
T1 construct: made in house; host or cells: E. coli BL21[DE3], pET28
T1 sequence (Q9SSM7 1-209) 1: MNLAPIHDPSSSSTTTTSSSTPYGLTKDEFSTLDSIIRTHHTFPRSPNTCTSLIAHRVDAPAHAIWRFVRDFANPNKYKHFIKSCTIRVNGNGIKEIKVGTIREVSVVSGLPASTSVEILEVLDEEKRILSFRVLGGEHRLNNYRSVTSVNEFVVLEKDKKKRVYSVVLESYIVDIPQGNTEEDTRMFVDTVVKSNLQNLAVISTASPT
T1 sequence (Q9SSM7 1-209) 2: T1 sequence (Q9SSM7 1-209) 1
Procedure: (§1) UV-Vis absorption measurements were performed on PYL3-Cy5.5, PYL3-BHQ3, and a 1:1 mixture of PYL3 containing PYL3-Cy5.5 and PYL3-BHQ3 (Shimadzu UV-Vis-NIR spectrophotometer, UV1700). […] Static light scattering (SLS) was used to determine the average molar mass (Malvern Zetasizer Nano S90 fitted with a 633 nm He—Ne laser). The mass of PYL3, PYL3-Cy5.5 and PYL3-BHQ3 was measured using Bruker UltraFlextreme MALDI TOF. Samples for MALDI-TOF measurement were prepared using a dried droplet method in a 2,5-Dihydroxyacetophenone (2,5-DHAP) matrix. The mass spectra were acquired with laser repetition frequency of 0.7-1 kHz.

[2] = target: T2, PYL3-Cy5.5/PYL3-BHQ3 heterodimer mixture (Arabidopsis thaliana, UniProt Q9SSM7); assay: Fluorescence of 1:1 PYL3-Cy5.5 / PYL3-BHQ3 mixture as a function of ABA concentration; format: biochemical; conditions: for Fluorescence from Cy5.5 in monomers / Sum of Cy5.5 fluorescence / Total fluorescence / Fluorescence from Cy5.5 in heterodimers / Fluorescence from Cy5.5 in homodimers: calculated; for Total fluorescence: BHQ3 concentration attenuation factor 0.27; for Fluorescence from Cy5.5 in heterodimers: FRET quenching factor 0.1; for Fluorescence from Cy5.5 in homodimers: self-quenching factor 0.8
T2 construct: made in house; host or cells: E. coli BL21[DE3], pET28
T2 sequence (Q9SSM7 1-209) 1: T1 sequence (Q9SSM7 1-209) 1
T2 sequence (Q9SSM7 1-209) 2: T1 sequence (Q9SSM7 1-209) 1
Procedure: This increase should arise from more dissociated PYL3-Cy5.5/PYL3-BHQ3 monomers, which lead to decreased FRET quenching of Cy5.5 by BHQ3 in the heterodimers and decreased self-quenching from Cy5.5 in PYL3-Cy5.5/PYL3-Cy5.5 homodimers as shown in FIG. 2C. Assuming BHQ3 in PYL3-BHQ3 behaves similarly as free BHQ3 in solutions, BHQ3 concentration dependent attenuation (FIG. 3D) is 64%, i.e., fluorescence is decreased to 36% of the signal of pure Cy5.5, at the BHQ3-PYL3 concentration of 4.0 μM used in the measurements. FRET quenching of Cy5.5 by BHQ3 in heterodimers is assumed to be 90%. […] In calculating the final fluorescence intensities (Total fluorescence) in Table 1, we employ the self-quenching, FRET quenching and BHQ3 concentration-dependent attenuation efficiency of 20%, 90% and 73.2%, respectively. The corresponding factors are 0.8, 0.1 and 0.27, respectively. The BHQ3 concentration dependent attenuation efficiency is slightly higher than 64% measured using a mixture of 4 μM of Cy5.5 and 4 μM BHQ3. The calculated final fluorescence intensities are within the standard deviations of the measured values.
For the data presented in Table 1, a self-quenching efficiency of 20% and BHQ3 concentration dependent quenching shown in FIG. 3C are used for calculation together with a calibrated fluorescence intensity of 79,653 cps from 4.65 μM Cy5.5. Units of fluorescence intensity are counts per second (cps). The values are calculated unless specified otherwise.^a Fluorescence intensity=amount of Cy5.5×calibrated unit fluorescence intensity.^b Fluorescence intensity=amount of Cy5.5×self-quenching factor (0.8)×calibrated unit fluorescence intensity.^c Fluorescence intensity=amount of Cy5.5×FRET quenching factor (0.1)×calibrated unit fluorescence intensity.^d Sum of a, b, and c.^e Total fluorescence=BHQ3 concentration attenuation factor (0.27)×d.

PYL3-Cy5.5 homodimers [3] = target: T3, PYL3-Cy5.5 homodimers (Arabidopsis thaliana, UniProt Q9SSM7); assay: Static light scattering (SLS) average molecular mass of PYL3-Cy5.5 as a function of ABA concentration; format: biochemical
T3 construct: made in house; host or cells: E. coli BL21[DE3], pET28
T3 sequence (Q9SSM7 1-209): T1 sequence (Q9SSM7 1-209) 1
Procedure: as §1
Results from Static Light Scattering (SLS) measurements were used to estimate average molecular mass (FIG. 2D) based on molecular motion in solution, although the method is controversial when the molecular mass is on the order of a few thousand atomic mass units.

PYL3-Cy5.5 homodimers [4] = target: T3, PYL3-Cy5.5 homodimers; assay: Fluorescence of PYL3-Cy5.5 as a function of ABA concentration (self-quenching); format: biochemical
Procedure: as §1
Fluorescence from PYL3 and BHQ3-PYL3 homodimers in aqueous solution is weak, whereas fluorescence from PYL3-Cy5.5 homodimers (FIG. 2B) was as similarly intense as that of Cy5.5. […] If there is no change to the fluorescence intensity, then no self-quenching occurs. […] This quenching efficiency was used to estimate the quenching efficiency between Cy5.5 and BHQ3 in PYL3 heterodimers.

[5] = target: T4, homodimeric receptor PYL3 (Arabidopsis thaliana, UniProt Q9SSM7); conditions: read-out: equilibrium dissociation constant (Kd) of homodimeric receptor PYL3, cited from earlier work
T4 sequence (Q9SSM7 1-209): T1 sequence (Q9SSM7 1-209) 1

CC1=CC(=O)CC(C)(C)[C@@]1(O)/C=C/C(C)=C\C(=O)O [ABA, abscisic acid]
average molecule mass (SLS) of PYL3-Cy5.5 / PYL3-BHQ3 mixture ([1]; 100 nM ABA): 50 kDa | Average molar mass (measured, amu) ([1]; ABA 0.1 μM): 51110 amu | PYLs in dimers (hetero- and homodimers, %) ([1]; ABA 0.1 μM): 98% | PYLs in monomers (%) ([1]; ABA 0.1 μM): 2% | Average molar mass (measured, amu) ([1]; ABA 1.0 μM): 47410 amu | PYLs in dimers (hetero- and homodimers, %) ([1]; ABA 1.0 μM): 84% | PYLs in monomers (%) ([1]; ABA 1.0 μM): 16% | Average molar mass (measured, amu) ([1]; ABA 40 μM): 43330 amu | PYLs in dimers (hetero- and homodimers, %) ([1]; ABA 40 μM): 68% | PYLs in monomers (%) ([1]; ABA 40 μM): 32% | Average molar mass (measured, amu) ([1]; ABA 100 μM): 34050 amu | PYLs in dimers (hetero- and homodimers, %) ([1]; ABA 100 μM): 32% | PYLs in monomers (%) ([1]; ABA 100 μM): 68% | Average molar mass (measured, amu) ([1]; ABA 1000 μM): 31080 amu | PYLs in dimers (hetero- and homodimers, %) ([1]; ABA 1000 μM): 20% | PYLs in monomers (%) ([1]; ABA 1000 μM): 80% | ABA concentration the current design can detect [2]: 200 nM | Fluorescence (measured) ([2]; ABA 0.1 μM): 3960 cps | Fluorescence from Cy5.5 in monomers ([2]; ABA 0.1 μM): 630 cps | Sum of Cy5.5 fluorescence ([2]; ABA 0.1 μM): 14553 cps | Total fluorescence ([2]; ABA 0.1 μM): 4045 cps | Fluorescence from Cy5.5 in heterodimers ([2]; ABA 0.1 μM): 1575 cps | Fluorescence from Cy5.5 in homodimers ([2]; ABA 0.1 μM): 12348 cps | Fluorescence (measured) ([2]; ABA 1.0 μM): 4292 cps | Fluorescence from Cy5.5 in monomers ([2]; ABA 1.0 μM): 5040 cps | Sum of Cy5.5 fluorescence ([2]; ABA 1.0 μM): 16974 cps | Total fluorescence ([2]; ABA 1.0 μM): 4718 cps | Fluorescence from Cy5.5 in heterodimers ([2]; ABA 1.0 μM): 1350 cps | Fluorescence from Cy5.5 in homodimers ([2]; ABA 1.0 μM): 10584 cps | Fluorescence (measured) ([2]; ABA 40 μM): 5301 cps | Fluorescence from Cy5.5 in monomers ([2]; ABA 40 μM): 10080 cps | Sum of Cy5.5 fluorescence ([2]; ABA 40 μM): 19741 cps | Total fluorescence ([2]; ABA 40 μM): 5488 cps | Fluorescence from Cy5.5 in heterodimers ([2]; ABA 40 μM): 1092 cps | Fluorescence from Cy5.5 in homodimers ([2]; ABA 40 μM): 8568 cps | Fluorescence (measured) ([2]; ABA 100 μM): 6711 cps | Fluorescence from Cy5.5 in monomers ([2]; ABA 100 μM): 21420 cps | Sum of Cy5.5 fluorescence ([2]; ABA 100 μM): 25866 cps | Total fluorescence ([2]; ABA 100 μM): 7218 cps | Fluorescence from Cy5.5 in heterodimers ([2]; ABA 100 μM): 514 cps | Fluorescence from Cy5.5 in homodimers ([2]; ABA 100 μM): 4032 cps | Fluorescence (measured) ([2]; ABA 1000 μM): 9494 cps | Fluorescence from Cy5.5 in monomers ([2]; ABA 1000 μM): 25200 cps | Sum of Cy5.5 fluorescence ([2]; ABA 1000 μM): 28035 cps | Total fluorescence ([2]; ABA 1000 μM): 7793 cps | Fluorescence from Cy5.5 in heterodimers ([2]; ABA 1000 μM): 315 cps | Fluorescence from Cy5.5 in homodimers ([2]; ABA 1000 μM): 2520 cps | change of fluorescence intensity of the mixture ([2]; ABA increased from less than one μM to one mM): more than doubled | increase of fluorescence signal of the mixture ([2]; upon mixing with 100 μM ABA): more than 50% | PYL3-Cy5.5 in the homodimer form (PYL3-Cy5.5 homodimers [3]; 0.1 μM ABA): 94% | average molecular mass (SLS) (PYL3-Cy5.5 homodimers [3]; 0.1 μM ABA): 50 kDa | PYL3-Cy5.5 in the monomeric form (PYL3-Cy5.5 homodimers [3]; 0.1 μM ABA, 51.6 kDa homodimers, 25.8 kDa monomers chosen): 6% | PYL3-Cy5.5 in the homodimer form (PYL3-Cy5.5 homodimers [3]; 1 mM ABA): 24% | PYL3-Cy5.5 in the monomeric form (PYL3-Cy5.5 homodimers [3]; 1 mM ABA): 76% | average molecular mass (SLS) (PYL3-Cy5.5 homodimers [3]; 1 mM ABA): 30 kDa | decrease of average molecular mass of the species in solution (PYL3-Cy5.5 homodimers [3]; ABA increases from 100 nM to 40 μM): ~20% | further decrease of average molecular mass of the species in solution (PYL3-Cy5.5 homodimers [3]; ABA increases from 50 to 100 μM): 20% | increase of fluorescence intensity of PYL3-Cy5.5 (PYL3-Cy5.5 homodimers [4]; ABA increases from 0.1 μM to 1 mM, on average): 20%

PYL3: Arabidopsis abscisic acid receptor PYL3 (SEQ ID NO:4), recombinant, forms homodimers that monomerize upon ABA binding
Kd ([5]; at saturating ABA concentrations): 52 µM | Kd ([5]; without ABA): 7.76 µM

PYL3-Cy5.5: PYL3 protein monomer chemically conjugated to the fluorescent molecule Cy5.5
self-quenching in the PYL3-Cy5.5 homodimers (PYL3-Cy5.5 homodimers [4]; absence of ABA, aqueous solution): at least 20%

Reference: patent US20220211037A1, “BIOSENSORS FOR DROUGHT STRESS IN PLANTS” (The Regents of the University of California, priority 2019, published 2022)
